“And” between values parts separate entries of the source, which are not always exact repeats. Equal entries are not always repeated.
Conditions: Transpiration method

O=C1C=CC(=O)C=C1 [1,4-benzoquinone]
Crystal
Conditions | vapor or sublimation pressure
290.2 K | 0.01002 kPa
293.4 K | 0.01343 kPa
297.5 K | 0.02081 kPa
298.5 K | 0.02319 kPa
301.4 K | 0.03014 kPa
303.1 K | 0.03408 kPa
307.3 K | 0.05078 kPa
308.3 K | 0.0527 kPa
310.2 K | 0.06526 kPa
313.3 K | 0.07951 kPa
314.1 K | 0.08416 kPa
317.3 K | 0.1098 kPa
320.1 K | 0.1364 kPa
323 K | 0.1783 kPa
323.3 K | 0.1841 kPa
324.2 K | 0.1861 kPa
327.2 K | 0.2502 kPa and 0.2417 kPa
328.1 K | 0.2659 kPa
330.3 K | 0.3065 kPa
333.2 K | 0.3846 kPa and 0.3832 kPa
334.2 K | 0.4116 kPa
338.1 K | 0.5504 kPa
338.2 K | 0.5497 kPa and 0.5525 kPa

CC1=CC(=O)C=CC1=O [2,5-cyclohexadiene-1,4-dione, 2-methyl]
Conditions | vapor or sublimation pressure
282.2 K, Crystal | 0.00318 kPa
285.6 K, Crystal | 0.00523 kPa and 0.0051 kPa
286.8 K, Crystal | 0.00566 kPa
288.5 K, Crystal | 0.00664 kPa and 0.00678 kPa
290.8 K, Crystal | 0.0091 kPa
295.2 K, Crystal | 0.01426 kPa
300.4 K, Crystal | 0.02498 kPa
305.3 K, Crystal | 0.04235 kPa
310.2 K, Crystal | 0.06335 kPa
312.9 K, Crystal | 0.08525 kPa
315.2 K, Crystal | 0.1054 kPa
317.9 K, Crystal | 0.1305 kPa
320.1 K, Crystal | 0.1774 kPa
322 K, Crystal | 0.2004 kPa
325.1 K, Crystal | 0.2769 kPa
327.8 K, Crystal | 0.3444 kPa
330.1 K, Crystal | 0.4336 kPa
331.6 K, Crystal | 0.4466 kPa
332.1 K, Crystal | 0.5012 kPa
335.2 K, Crystal | 0.6342 kPa
336.7 K, Crystal | 0.7271 kPa
343.2 K, Liquid | 1.019 kPa
347.2 K, Liquid | 1.264 kPa
351.2 K, Liquid | 1.552 kPa
355.1 K, Liquid | 1.947 kPa
356.8 K, Liquid | 2.104 kPa
359.1 K, Liquid | 2.373 kPa
363.1 K, Liquid | 2.94 kPa

Reference: the NIST ThermoML archive (doi:10.1021/acs.jced.7b00354)
